For test [1], the target named is CDK6/Cyclin D3 (Homo sapiens (Human), UniProt Q00534). Put plainly: TR-FRET kinase inhibition assay, CDK6/Cyclin D3. The class given is biochemical. The following applies: 1 mM ATP, 0.15 μM Rb (Ser780)-biotin substrate, read-out: CDK6D3 IC50. On the procedure:
(§1) Compounds disclosed herein were tested for inhibition of CDK4/Cyclin D1 or CDK6/Cyclin D3 kinase in an assay based on the time-resolved fluorescence-resonance energy transfer (TR-FRET) methodology. The assay was carried out in 384-well low volume black plates in a reaction mixture containing CDK4/Cyclin D1 or CDK6/Cyclin D3, 1 mM ATP, 0.15 μM Rb (Ser780)-biotin substrate and 0-10 μM compound in buffer containing 50 mM HEPES pH7.0, 0.02% NaN3, 0.01% BSA, 0.1 mM Orthovanadate, 50 mM MgCl2, 1 mM DTT and 0.005% Tween-20. The kinase was incubated with compound for 60 minutes at room temperature and the reaction was initiated by the addition of ATP and Rb (Ser780)-biotin substrate. After reaction at room temperature for 120 minutes, an equal volume of stop/detection solution was added according to the manufacture's instruction (Cisbio Bioassays). The stop/detection solution contained Streptavidin-XL665 and Anti-pRb (Ser780) mAb-Eu Cryptate in Detection buffer (Cisbio Bioassays). Plates were incubated at room temperature for 60 minutes, and the TR-FRET signals (ex337 nm, em665 nm/620 nm) were recorded on a PHERAstar FSX plate reader (BMG Labtech). The inhibition percentage of CDK4/Cyclin D1 or CDK6/Cyclin D3 kinase activity in presence of increasing concentrations of compounds was calculated based on the ratio of fluorescence at 665 nm to that at 620 nm. The IC50 for each compound was derived from fitting the data to the four-parameter logistic equation by Dotmatics.
A general note: In TR-FRET formats the signal depends on donor and acceptor labels being close together.

Test [2] addresses CDK4/Cyclin D1 (Homo sapiens (Human), UniProt P11802). As to the kind of experiment: TR-FRET kinase inhibition assay, CDK4/Cyclin D1. The class given is biochemical. The conditions noted are these: 1 mM ATP, 0.15 μM Rb (Ser780)-biotin substrate, read-out: CDK4D1 IC50. On the procedure:
as §1, with “The assay was carried out in 384-well low volume black plates in a reaction mixture containing CDK4/Cyclin D1 or CDK6/Cyclin D3, 1 mM ATP, 0.15 μM Rb (Ser780)-biotin substrate and 0-10 μM compound in buffer containing 50 mM HEPES pH7.0, 0.02% NaN3, 0.01% BSA, 0.1 mM Orthovanadate, 50 mM MgCl2, 1 mM DTT and 0.005% Tween-20.” left out, “Plates were incubated at room temperature for 60 minutes, and the TR-FRET signals (ex337 nm, em665 nm/620 nm) were recorded on a PHERAstar FSX plate reader (BMG Labtech).” left out

By IC50 is commonly meant the point on the concentration scale where inhibition reaches its midpoint.

Each structure is given as a SMILES string.

Chain of CDK4/Cyclin D1 (P11802 whole entry): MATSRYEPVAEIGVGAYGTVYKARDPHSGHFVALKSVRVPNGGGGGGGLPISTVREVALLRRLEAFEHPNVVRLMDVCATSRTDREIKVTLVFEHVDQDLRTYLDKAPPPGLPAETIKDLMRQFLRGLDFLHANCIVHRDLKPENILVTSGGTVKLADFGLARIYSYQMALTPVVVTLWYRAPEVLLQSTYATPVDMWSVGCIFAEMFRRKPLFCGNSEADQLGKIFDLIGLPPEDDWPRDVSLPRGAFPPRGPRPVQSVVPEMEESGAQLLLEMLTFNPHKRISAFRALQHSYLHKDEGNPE
Chain of CDK4/Cyclin D1 (P24385 whole entry partner): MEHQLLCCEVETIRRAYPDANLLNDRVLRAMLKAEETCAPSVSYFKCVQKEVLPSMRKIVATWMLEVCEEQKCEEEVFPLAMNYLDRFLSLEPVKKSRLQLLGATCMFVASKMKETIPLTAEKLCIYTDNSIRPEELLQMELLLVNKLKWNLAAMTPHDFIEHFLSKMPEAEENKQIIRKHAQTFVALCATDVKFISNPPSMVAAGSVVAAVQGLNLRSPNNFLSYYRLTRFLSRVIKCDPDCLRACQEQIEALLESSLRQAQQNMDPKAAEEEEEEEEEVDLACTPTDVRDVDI
Chain of CDK6/Cyclin D3 (Q00534 whole entry): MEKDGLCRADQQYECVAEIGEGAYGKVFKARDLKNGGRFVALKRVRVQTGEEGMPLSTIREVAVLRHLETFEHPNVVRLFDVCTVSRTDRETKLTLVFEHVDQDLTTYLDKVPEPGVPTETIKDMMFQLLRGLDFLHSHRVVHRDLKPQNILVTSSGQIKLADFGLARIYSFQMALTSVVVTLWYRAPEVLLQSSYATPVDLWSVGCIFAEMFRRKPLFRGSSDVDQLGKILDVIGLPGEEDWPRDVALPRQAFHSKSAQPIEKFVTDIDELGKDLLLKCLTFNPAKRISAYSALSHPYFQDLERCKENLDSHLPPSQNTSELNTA
Chain of CDK6/Cyclin D3 (P30281 whole entry partner): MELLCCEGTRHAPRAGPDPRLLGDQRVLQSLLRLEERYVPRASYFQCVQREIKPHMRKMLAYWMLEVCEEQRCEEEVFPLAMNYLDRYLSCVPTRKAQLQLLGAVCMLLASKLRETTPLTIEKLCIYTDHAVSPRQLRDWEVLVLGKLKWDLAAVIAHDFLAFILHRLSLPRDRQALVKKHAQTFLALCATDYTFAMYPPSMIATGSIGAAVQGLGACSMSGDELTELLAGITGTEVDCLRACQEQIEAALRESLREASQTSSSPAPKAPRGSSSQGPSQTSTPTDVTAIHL

In the case of `Cc1cn(C(C)C)c2cc(-c3nc(N[C@@H]4CCOC[C@H]4O)ncc3F)ccc2c1=O` [Example 2, 7-(5-fluoro-2-(((3S,4R)-3-hydroxytetrahydro-2H-pyran-4-yl)amino)pyrimidin-4-yl)-1-isopropyl-3-methylquinolin-4(1H)-one], the IC50 in test [1] was found to be 1220 nM; in test [2], 68 nM.

Take `Cc1c(CN2CCOCC2)n(C(C)C)c2cc(-c3nc(N[C@@H]4CCOC[C@H]4O)ncc3F)ccc2c1=O` [Example 58, 7-(5-fluoro-2-(((3S,4R)-3-hydroxytetrahydro-2H-pyran-4-yl)amino)pyrimidin-4-yl)-1-isopropyl-3-methyl-2-(morpholinomethyl)quinolin-4(1H)-one]: the IC50 in test [1] was determined as 78.2 nM; in test [2], 3.4 nM.

As to `CC(C)n1c(CNC2CC2)cc(=O)c2ccc(-c3nc(N[C@@H]4CCOC[C@H]4O)ncc3F)cc21` [Example 48, 2-((cyclopropylamino)methyl)-7-(5-fluoro-2-(((3S,4R)-3-hydroxytetrahydro-2H-pyran-4-yl)amino)pyrimidin-4-yl)-1-isopropylquinolin-4(1H)-one], the concentration for half-maximal inhibition (IC50) was 209 nM in test [1] and 9.1 nM in test [2].

On to `Cc1c(CN2CCC(O)CC2)n(C(C)C)c2cc(-c3nc(N[C@@H]4CCOC[C@H]4O)ncc3F)ccc2c1=O` [Example 115, 7-(5-fluoro-2-(((3S,4R)-3-hydroxytetrahydro-2H-pyran-4-yl)amino)pyrimidin-4-yl)-2-((4-hydroxypiperidin-1-yl)methyl)-1-isopropyl-3-methylquinolin-4(1H)-one], for which the IC50 in test [1] turned out to be 271 nM; in test [2] it was 6.6 nM.

Turning to `CC(C)n1c(CO)cc(=O)c2ccc(-c3nc(N[C@@H]4CCOC[C@H]4O)ncc3F)cc21` [Example 17, 7-(5-fluoro-2-(((3S,4R)-3-hydroxytetrahydro-2H-pyran-4-yl)amino)pyrimidin-4-yl)-2-(hydroxymethyl)-1-isopropylquinolin-4(1H)-one], the IC50 turned out to be 120 nM in test [1] and 7.5 nM in test [2].

In the case of `CC(C)n1ccc(=O)c2c(Cl)cc(-c3nc(N[C@@H]4CCOC[C@H]4O)ncc3Cl)cc21` [Example 1, 5-chloro-7-(5-chloro-2-(((3S,4R)-3-hydroxytetrahydro-2H-pyran-4-yl)amino)pyrimidin-4-yl)-1-isopropylquinolin-4(1H)-one], the IC50 in test [1] was 808 nM; in test [2], 101 nM.

With `CC(C)n1c(C(=O)NCCC#N)cc(=O)c2ccc(-c3nc(N[C@@H]4CCOC[C@H]4O)ncc3Cl)cc21` [Example 21, 7-(5-chloro-2-(((3S,4R)-3-hydroxytetrahydro-2H-pyran-4-yl)amino)pyrimidin-4-yl)-N-(2-cyanoethyl)-1-isopropyl-4-oxo-1,4-dihydroquinoline-2-carboxamide], the IC50 was 385 nM in test [1] and 35 nM in test [2].

Take `CC(C)n1cc(Cl)c(=O)c2ccc(-c3nc(N[C@@H]4CCOC[C@H]4O)ncc3F)cc21` [Example 12, 3-chloro-7-(5-fluoro-2-(((3S,4R)-3-hydroxytetrahydro-2H-pyran-4-yl)amino)pyrimidin-4-yl)-1-isopropylquinolin-4(1H)-one]: the IC50 was 1930 nM in test [1] and 258 nM in test [2].

In the case of `CC(C)n1c(CN(C)C)cc(=O)c2ccc(-c3nc(N[C@@H]4CCOC[C@H]4O)ncc3F)cc21` [Example 20, 2-((dimethylamino)methyl)-7-(5-fluoro-2-(((3S,4R)-3-hydroxytetrahydro-2H-pyran-4-yl)amino)pyrimidin-4-yl)-1-isopropylquinolin-4(1H)-one], the IC50 in test [1] stood at 510 nM; in test [2] it was 15 nM.

As for `CC(C)n1c(CN2C3CCC2COC3)cc(=O)c2ccc(-c3nc(N[C@@H]4CCOC[C@H]4O)ncc3F)cc21` [Example 81, 2-((3-oxa-8-azabicyclo[3.2.1]octan-8-yl)methyl)-7-(5-fluoro-2-(((3S,4R)-3-hydroxytetrahydro-2H-pyran-4-yl)amino)pyrimidin-4-yl)-1-isopropylquinolin-4(1H)-one], the IC50 in test [1] was 483 nM; in test [2], 23 nM.

As for `CC(C)n1c(CN[C@@H]2CCCOC2)cc(=O)c2ccc(-c3nc(N[C@@H]4CCOC[C@H]4O)ncc3F)cc21` [Example 59, 7-(5-fluoro-2-(((3S,4R)-3-hydroxytetrahydro-2H-pyran-4-yl)amino)pyrimidin-4-yl)-1-isopropyl-2-((((R)-tetrahydro-2H-pyran-3-yl)amino)methyl)quinolin-4(1H)-one], the concentration for half-maximal inhibition (IC50) in test [1] was determined as 675 nM; in test [2], 27 nM.

As to `CCc1cc(=O)c2ccc(-c3nc(N[C@@H]4CCOC[C@H]4O)ncc3F)cc2n1C(C)C` [Example 55, 2-ethyl-7-(5-fluoro-2-(((3S,4R)-3-hydroxytetrahydro-2H-pyran-4-yl)amino)pyrimidin-4-yl)-1-isopropylquinolin-4(1H)-one], the IC50 in test [1] turned out to be 345 nM; in test [2], 15 nM.

Regarding `CC(C)n1c(CN2CCOC[C@H]2C)cc(=O)c2ccc(-c3nc(N[C@@H]4CCOC[C@H]4O)ncc3F)cc21` [Example 82, 7-(5-fluoro-2-(((3S,4R)-3-hydroxytetrahydro-2H-pyran-4-yl)amino)pyrimidin-4-yl)-1-isopropyl-2-(((R)-3-methylmorpholino)methyl)quinolin-4(1H)-one], the results for the half-maximal inhibitory concentration (IC50) in test [1] and in test [2] were 540 nM and 12 nM, respectively.

Take `CC(C)n1c(CN2CCC(C)(O)CC2)cc(=O)c2ccc(-c3nc(N[C@@H]4CCOC[C@H]4O)ncc3F)cc21` [Example 38, 7-(5-fluoro-2-(((3S,4R)-3-hydroxytetrahydro-2H-pyran-4-yl)amino)pyrimidin-4-yl)-2-((4-hydroxy-4-methylpiperidin-1-yl)methyl)-1-isopropylquinolin-4(1H)-one]: the IC50 in test [1] turned out to be 888 nM; in test [2] it was 24 nM.

Regarding `CNC(=O)c1cc(=O)c2ccc(-c3nc(N[C@@H]4CCOC[C@H]4O)ncc3Cl)cc2n1C(C)C` [Example 14, 7-(5-chloro-2-(((3S,4R)-3-hydroxytetrahydro-2H-pyran-4-yl)amino)pyrimidin-4-yl)-1-isopropyl-N-methyl-4-oxo-1,4-dihydroquinoline-2-carboxamide], the IC50 was 714 nM in test [1] and 42 nM in test [2].

In the case of `CC(C)n1c(CN)cc(=O)c2ccc(-c3nc(N[C@@H]4CCOC[C@H]4O)ncc3F)cc21` [Example 35], the half-inhibitory concentration (IC50) in test [1] amounted to 276 nM; in test [2], 6.9 nM.

On to `CC(C)n1c(CN2CCOC[C@@H]2C)cc(=O)c2ccc(-c3nc(N[C@@H]4CCOC[C@H]4O)ncc3F)cc21` [Example 53, 7-(5-fluoro-2-(((3S,4R)-3-hydroxytetrahydro-2H-pyran-4-yl)amino)pyrimidin-4-yl)-1-isopropyl-2-(((S)-3-methylmorpholino)methyl)quinolin-4(1H)-one], for which the half-maximal inhibitory concentration (IC50) was determined as 165 nM in test [1] and 11 nM in test [2].

Consider `CC(C)n1c(CN2CCC(F)CC2)cc(=O)c2ccc(-c3nc(N[C@@H]4CCOC[C@H]4O)ncc3F)cc21` [Example 99, 7-(5-fluoro-2-(((3S,4R)-3-hydroxytetrahydro-2H-pyran-4-yl)amino)pyrimidin-4-yl)-2-((4-fluoropiperidin-1-yl)methyl)-1-isopropylquinolin-4(1H)-one], for which the figures for the 50% inhibitory concentration (IC50) in test [1] and in test [2] were 561 nM and 17 nM, respectively.

`CC(C)n1c(CN2CCOCC2)cc(=O)c2ccc(-c3nc(N[C@@H]4CCOC[C@H]4O)ncc3F)cc21` [Example 25, 7-(5-fluoro-2-(((3S,4R)-3-hydroxytetrahydro-2H-pyran-4-yl)amino)pyrimidin-4-yl)-1-isopropyl-2-(morpholinomethyl)quinolin-4(1H)-one]: the IC50 in test [1] turned out to be 139 nM; in test [2], 8.2 nM.

For `CC(C)n1c(CN2CC(O)C2)cc(=O)c2ccc(-c3nc(N[C@@H]4CCOC[C@H]4O)ncc3F)cc21` [Example 30, 7-(5-fluoro-2-(((3S,4R)-3-hydroxytetrahydro-2H-pyran-4-yl)amino)pyrimidin-4-yl)-2-((3-hydroxyazetidin-1-yl)methyl)-1-isopropylquinolin-4(1H)-one], the IC50 amounted to 780 nM in test [1] and 30 nM in test [2].

The record behind these values is patent US20250136586A1, “Substituted 7-(Pyrimidin-4-yl)Quinolin-4(1H)-One Compounds as Cyclin Dependent Kinase Inhibitors” (BeiGene, Ltd., priority 2022, published 2025).
